Results as given in patent publication US20250114338A1, “TETRAHYDRO-PYRIDO[3,4-b]INDOLE ESTROGEN RECEPTOR MODULATORS AND USES THEREOF” (Genentech, Inc., priority 2014, published 2025).
pEC50: −log10 of the molar value.

test system: ER-alpha MCF7; test: ER-alpha MCF7 HCS EC50; stated as measured by in vitro cell proliferation assays of Examples 902 and 903; assay type: cell-based; settings: Homo sapiens, MCF7, MCF7 cells; Table 2
Method in brief: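 MCF7 cells seeded 1000-2000 cells/well for 16 h, then treated with nine-point 1:2 DMSO dilution series in quadruplicate at 37 °C, 5% CO2 for 4 days. Viable cells quantified by CellTiter-Glo ATP luminescence; EC50 calculated. Controls: fulvestrant at final 100 nM, DMSO 0.2% v/v.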

Compound	pEC50
C[C@@H]1Cc2c([nH]c3ccccc23)[C@@H](c2c(F)cc(OC3CN(CC4CCC(F)(F)CC4)C3)cc2F)N1CC(C)(C)F [Example 217, (1R,3R)-1-[4-[1-[(4,4-difluorocyclohexyl)methyl]azetidin-3-yl]oxy-2,6-difluoro-phenyl]-2-(2-fluoro-2-methyl-propyl)-3-methyl-1,3,4,9-tetrahydropyrido[3,4-b]indole]	8.70
C[C@@H]1Cc2c([nH]c3ccccc23)[C@@H](c2ccc(OCCN3CC(CF)C3)cc2)N1C(=O)C(C)(C)F [Example 221, 2-fluoro-1-[(1R,3R)-1-[4-[2-[3-(fluoromethyl)azetidin-1-yl]ethoxy]phenyl]-3-methyl-1,3,4,9-tetrahydropyrido[3,4-b]indol-2-yl]-2-methyl-propan-1-one]	6.74
C[C@@H]1Cc2c([nH]c3ccccc23)[C@@H](c2c(F)cc(OC3CN(CCCF)C3)cc2F)N1C(=O)C(C)(C)F [Example 222, 1-[(1R,3R)-1-[2,6-difluoro-4-[1-(3-fluoropropyl)azetidin-3-yl]oxy-phenyl]-3-methyl-1,3,4,9-tetrahydropyrido[3,4-b]indol-2-yl]-2-fluoro-2-methyl-propan-1-one]	9.40
C[C@@H]1Cc2c([nH]c3ccccc23)[C@@H](c2c(F)cc(OC3CN(CC4(F)CC4)C3)cc2F)N1CC(C)(C)F [Example 224, (1R,3R)-1-[2,6-difluoro-4-[1-[(1-fluorocyclopropyl)methyl]azetidin-3-yl]oxy-phenyl]-2-(2-fluoro-2-methyl-propyl)-3-methyl-1,3,4,9-tetrahydropyrido[3,4-b]indole]	9.50
C[C@@H]1Cc2c([nH]c3ccccc23)[C@@H](c2c(F)cc(OC3CN(CCCF)C3)cc2F)N1C(=O)C1(F)CCC1 [Example 225, [(1R,3R)-1-[2,6-difluoro-4-[1-(3-fluoropropyl)azetidin-3-yl]oxy-phenyl]-3-methyl-1,3,4,9-tetrahydropyrido[3,4-b]indol-2-yl]-(1-fluorocyclobutyl)methanone]	9.00
C[C@@H]1Cc2c([nH]c3ccccc23)[C@@H](c2c(F)cc(OC3CN(CCCF)C3)cc2F)N1C(=O)C1(C)CC1 [Example 226, [(1R,3R)-1-[2,6-difluoro-4-[1-(3-fluoropropyl)azetidin-3-yl]oxy-phenyl]-3-methyl-1,3,4,9-tetrahydropyrido[3,4-b]indol-2-yl]-(1-methylcyclopropyl)methanone]	8.70
C[C@@H]1Cc2c([nH]c3ccccc23)[C@H](c2ccc(OCCN3CC(CF)C3)cc2F)N1C(=O)C(C)(C)F [Example 229, 2-fluoro-1-[(1S,3R)-1-[2-fluoro-4-[2-[3-(fluoromethyl)azetidin-1-yl]ethoxy]phenyl]-3-methyl-1,3,4,9-tetrahydropyrido[3,4-b]indol-2-yl]-2-methyl-propan-1-one]	7.60
C[C@@H]1Cc2c([nH]c3ccccc23)[C@@H](c2ccc(OCCN3CC(CF)C3)cc2F)N1C(=O)C(C)(C)F [Example 230, 2-fluoro-1-[(1R,3R)-1-[2-fluoro-4-[2-[3-(fluoromethyl)azetidin-1-yl]ethoxy]phenyl]-3-methyl-1,3,4,9-tetrahydropyrido[3,4-b]indol-2-yl]-2-methyl-propan-1-one]	10.17
C[C@@H]1Cc2c([nH]c3ccccc23)[C@H](c2ccc(OCCN3CC(CF)C3)cc2F)N1S(C)(=O)=O [Example 231, (1S,3R)-1-[2-fluoro-4-[2-[3-(fluoromethyl)azetidin-1-yl]ethoxy]phenyl]-3-methyl-2-methylsulfonyl-1,3,4,9-tetrahydropyrido[3,4-b]indole]	7.62
C[C@@H]1Cc2c([nH]c3ccccc23)[C@@H](c2ccc(OCCN3CC(CF)C3)cc2F)N1S(C)(=O)=O [Example 232, (1R,3R)-1-[2-fluoro-4-[2-[3-(fluoromethyl)azetidin-1-yl]ethoxy]phenyl]-3-methyl-2-methylsulfonyl-1,3,4,9-tetrahydropyrido[3,4-b]indole]	9.72
C[C@@H]1Cc2c([nH]c3ccccc23)[C@H](c2ccc(OCCN3CC(CF)C3)cc2)N1C(=O)C(C)(C)F [Example 235, 2-fluoro-1-[(1S,3R)-1-[4-[2-[3-(fluoromethyl)azetidin-1-yl]ethoxy]phenyl]-3-methyl-1,3,4,9-tetrahydropyrido[3,4-b]indol-2-yl]-2-methyl-propan-1-one]	7.62
C[C@@H]1Cc2c([nH]c3ccccc23)[C@@H](c2c(F)cc(OC3CN(CCCF)C3)cc2F)N1C(=O)C1(F)CC1 [Example 238, [(1R,3R)-1-[2,6-difluoro-4-[1-(3-fluoropropyl)azetidin-3-yl]oxy-phenyl]-3-methyl-1,3,4,9-tetrahydropyrido[3,4-b]indol-2-yl]-(1-fluorocyclopropyl)methanone]	9.61

Further lines, results first:

pEC50	Compound
8.40	C[C@@H]1Cc2c([nH]c3ccccc23)[C@@H](c2c(F)cc(OCCN3CC(CF)C3)cc2F)N1C(=O)C1COC1 [Example 213, [(1R,3R)-1-[2,6-difluoro-4-[2-[3-(fluoromethyl)azetidin-1-yl]ethoxy]phenyl]-3-methyl-1,3,4,9-tetrahydropyrido[3,4-b]indol-2-yl]-(oxetan-3-yl)methanone]
8.40	C[C@@H]1Cc2c([nH]c3ccccc23)[C@@H](c2c(F)cc(OCCN3CC(CF)C3)cc2F)N1C(=O)C1CSC1 [Example 214, [(1R,3R)-1-[2,6-difluoro-4-[2-[3-(fluoromethyl)azetidin-1-yl]ethoxy]phenyl]-3-methyl-1,3,4,9-tetrahydropyrido[3,4-b]indol-2-yl]-(thietan-3-yl)methanone]
9.47	C[C@@H]1Cc2c([nH]c3ccccc23)[C@@H](c2c(F)cc(OCCN3CC(CF)C3)cc2F)N1C(=O)[C@@H](C)CF [Example 215, (R)-1-((1R,3R)-1-(2,6-difluoro-4-(2-(3-(fluoromethyl)azetidin-1-yl)ethoxy)phenyl)-3-methyl-1,3,4,9-tetrahydro-2H-pyrido[3,4-b]indol-2-yl)-3-fluoro-2-methylpropan-1-one]
9.00	C[C@@H]1Cc2c([nH]c3ccccc23)[C@@H](c2c(F)cc(OCCN3CC(CF)C3)cc2F)N1CC1CCCC1 [Example 216, (1R,3R)-2-(cyclopentylmethyl)-1-[2,6-difluoro-4-[2-[3-(fluoromethyl)azetidin-1-yl]ethoxy]phenyl]-3-methyl-1,3,4,9-tetrahydropyrido[3,4-b]indole]
9.40	C[C@H](CF)C(=O)N1[C@H](c2c(F)cc(OCCN3CC(CF)C3)cc2F)c2[nH]c3ccccc3c2C[C@H]1C [Example 218, (S)-1-((1R,3R)-1-(2,6-difluoro-4-(2-(3-(fluoromethyl)azetidin-1-yl)ethoxy)phenyl)-3-methyl-1,3,4,9-tetrahydro-2H-pyrido[3,4-b]indol-2-yl)-3-fluoro-2-methylpropan-1-one]
7.46	C[C@@H]1Cc2c([nH]c3ccccc23)[C@@H](c2c(F)cc(OCCN3CC(CF)C3)cc2F)N1C(=O)C1CCO1 (stereo partly drawn) [Example 219, ((1R,3R)-1-(2,6-difluoro-4-(2-(3-(fluoromethyl)azetidin-1-yl)ethoxy)phenyl)-3-methyl-1,3,4,9-tetrahydro-2H-pyrido[3,4-b]indol-2-yl)(oxetan-2-yl)methanone]
8.15	C[C@@H]1Cc2c([nH]c3ccccc23)[C@@H](c2c(F)cc(OCCN3CC(CF)C3)cc2F)N1 [Example 220, (1R,3R)-1-[2,6-difluoro-4-[2-[3-(fluoromethyl)azetidin-1-yl]ethoxy]phenyl]-3-methyl-2,3,4,9-tetrahydro-1H-pyrido[3,4-b]indole]
7.42	C[C@@H]1Cc2c([nH]c3ccccc23)[C@@H](c2c(F)cc(OCCN3CC(CF)C3)cc2F)N1C(=O)CN(C)C [Example 223, 1-[(1R,3R)-1-[2,6-difluoro-4-[2-[3-(fluoromethyl)azetidin-1-yl]ethoxy]phenyl]-3-methyl-1,3,4,9-tetrahydropyrido[3,4-b]indol-2-yl]-2-(dimethylamino)ethanone]
9.77	C[C@@H]1Cc2c([nH]c3ccccc23)[C@@H](c2c(F)cc(OC3CN(CCCF)C3)cc2F)N1CC1(CF)CC1 [Example 227]
9.00	C[C@@H]1Cc2c([nH]c3ccccc23)[C@@H](c2c(F)cc(OC3CN(CCCF)C3)cc2F)N1CC1(CO)CC1 [Example 228, [1-[[(1R,3R)-1-[2,6-difluoro-4-[1-(3-fluoropropyl)azetidin-3-yl]oxy-phenyl]-3-methyl-1,3,4,9-tetrahydropyrido[3,4-b]indol-2-yl]methyl]cyclopropyl] methanol]
9.88	C[C@@H]1Cc2c([nH]c3ccccc23)[C@@H](c2c(F)cc(OC3CN(CCCF)C3)cc2F)N1C[C@](C)(F)CO [Example 233, 3-((1R,3R)-1-(2,6-difluoro-4-((1-(3-fluoropropyl)azetidin-3-yl)oxy)phenyl)-3-methyl-1,3,4,9-tetrahydro-2H-pyrido[3,4-b]indol-2-yl)-2-fluoro-2-methylpropan-1-ol]
9.74	C[C@@H]1Cc2c([nH]c3ccccc23)[C@@H](c2c(F)cc(OC3CN(CCCF)C3)cc2F)N1C[C@@](C)(F)CO [Example 234, 3-((1R,3R)-1-(2,6-difluoro-4-((1-(3-fluoropropyl)azetidin-3-yl)oxy)phenyl)-3-methyl-1,3,4,9-tetrahydro-2H-pyrido[3,4-b]indol-2-yl)-2-fluoro-2-methylpropan-1-ol]
9.74	CC(C)(F)CN1CCc2c([nH]c3ccccc23)[C@H]1c1c(F)cc(OCCN2CC(CF)C2)cc1F [Example 236, (IR)-1-[2,6-difluoro-4-[2-[3-(fluoromethyl)azetidin-1-yl]ethoxy]phenyl]-2-(2-fluoro-2-methyl-propyl)-1,3,4,9-tetrahydropyrido[3,4-b]indole]
7.34	CC(C)(F)CN1CCc2c([nH]c3ccccc23)[C@@H]1c1c(F)cc(OCCN2CC(CF)C2)cc1F [Example 237, (1S)-1-[2,6-difluoro-4-[2-[3-(fluoromethyl)azetidin-1-yl]ethoxy]phenyl]-2-(2-fluoro-2-methyl-propyl)-1,3,4,9-tetrahydropyrido[3,4-b]indole]
